pEC50, pIC50: −log10 of the molar value.
Assays:
NHACs = assay: calcium flux assay; type: cell-based, human; conditions: Homo sapiens; for Emax: read-out: (A) % Efficacy
Method in brief: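 FLIPR fluorescence (ex 470–495 nm, em 515–575 nm) was read before and after compound dispense at the indicated dose. Chondrocytes (NHACs), 2000 cells/well, had been dye-loaded 24 h after plating with Calcium 5 in HBSS/HEPES plus 5 mM probenecid, 1 h, room temperature.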

C3H10T1/2 cell line = assay: alkaline phosphatase assay in C3H10T1/2; type: cell-based; conditions: Mus musculus, C3H 10T1/2, 144 h, alkaline phosphatase assay in C3H10T1/2, 6 days; for Emax: read-out: (D) % Efficacy; for pIC50: read-out: (D) IC50
Description: To initiate differentiation in C3H10T1/2, Clone 8 (ATCC cat #CCL-226), 4,000 cells were plated/well in 384 Perkin Elmer CellCarrier Ultra plate in DMEM/High glucose (HyClone cat #SH30022.01) containing 10% FBS and 1× Antibiotic/Antimycotic (HyClone cat #SV30079.01). After 24 hours the test compound was then added to each well at the indicated dose. The cultures were grown at 37° C. for 6 days.
To detect the presence of hypertrophic cells, C3H10T1/2 were fixed with 4% paraformaldehyde and Hoeschst dye for 20 minutes, rinsed in PBS, then stained with Fast Blue RR Salt with Naphthol AS-MX Phosphate Alkaline Solution.
The ALP staining was imaged by fluoresecent microscopy, using the 561 wavelength, and/or quantified by high content imagining with the ImageXpress Micro Confocal (Molecular Devices, Sunnyvale, CA). Data analyses were performed with the customized multiwavelength cell-scoring application looking at the number of ALP positive cells per well.

SMILES: COc1cc([C@H]2[C@H]3O[C@H](C[C@H]3F)[C@@H]2C(=O)Nc2ccc(Cl)c(Cl)c2)ccn1 [Example 165, (1R,2R,3S,4R,5R)—N-(3,4-dichlorophenyl)-5-fluoro-3-(2-methoxypyridin-4-yl)-7-oxabicyclo[2.2.1]heptane-2-carboxamide]
- pEC50 (NHACs): 5.22
- Emax (NHACs): 110%
- Emax (C3H10T1/2 cell line): 59%
- pIC50 (C3H10T1/2 cell line): < 4.70

SMILES: Cc1cc([C@H]2[C@H]3O[C@H](C[C@H]3NCCO)[C@@H]2C(=O)Nc2ccc(Cl)c(Cl)c2)ccn1 [Example 168, (1R,2R,3S,4R,5R)—N-(3,4-dichlorophenyl)-5-((2-hydroxyethyl)amino)-3-(2-methylpyridin-4-yl)-7-oxabicyclo[2.2.1]heptane-2-carboxamide]
- pEC50 (NHACs): 6.49
- Emax (NHACs): 114%
- Emax (C3H10T1/2 cell line): 0%
- pIC50 (C3H10T1/2 cell line): < 4.70

SMILES: Cc1cc([C@H]2[C@H]3O[C@H](C[C@H]3O)[C@@H]2C(=O)Nc2ccc(Cl)c(Cl)c2)ccn1 [Example 180, (1R,2R,3S,4R,5R)—N-(3,4-dichlorophenyl)-5-hydroxy-3-(2-methylpyridin-4-yl)-7-oxabicyclo[2.2.1]heptane-2-carboxamide]
- pEC50 (NHACs): 4.52
- Emax (NHACs): 113%
- Emax (C3H10T1/2 cell line): 69%
- pIC50 (C3H10T1/2 cell line): 4.96

SMILES: Cc1ccc([C@H]2[C@H]3O[C@H](C[C@@H]3O)[C@@H]2C(=O)Nc2ccc(Cl)c(Cl)c2)cn1 [Example 138, (1R,2R,3S,4R,5S)—N-(3,4-dichlorophenyl)-5-hydroxy-3-(6-methylpyridin-3-yl)-7-oxabicyclo[2.2.1]heptane-2-carboxamide]
- pEC50 (NHACs): < 4.30
- Emax (NHACs): 0%
- Emax (C3H10T1/2 cell line): 24%
- pIC50 (C3H10T1/2 cell line): < 4.70

SMILES: Cc1cc([C@H]2[C@H]3O[C@H](C[C@@H]3O)[C@@H]2C(=O)NC2CCN(S(C)(=O)=O)CC2)ccn1 [Example 79, (1R,2R,3S,4R,5S)-5-hydroxy-3-(2-methylpyridin-4-yl)-N-(1-(methylsulfonyl)piperidin-4-yl)-7-oxabicyclo[2.2.1]heptane-2-carboxamide]
- pEC50 (NHACs): < 4.30
- Emax (NHACs): 113%
- Emax (C3H10T1/2 cell line): 34%
- pIC50 (C3H10T1/2 cell line): < 4.70

SMILES: Cc1cc([C@H]2[C@H](C(=O)Nc3ccc(Cl)c(Cl)c3)[C@H]3O[C@@H]2C[C@@H]3O)ccn1 [Example 77d, (1R,2S,3R,4R,6S)-N-(3,4-dichlorophenyl)-6-hydroxy-3-(2-methylpyridin-4-yl)-7-oxabicyclo[2.2.1]heptane-2-carboxamide]
- pEC50 (NHACs): 4.48
- Emax (NHACs): 92%
- Emax (C3H10T1/2 cell line): 54%
- pIC50 (C3H10T1/2 cell line): < 4.70

SMILES: COc1cc([C@H]2[C@H]3O[C@H](C[C@@H]3O)[C@@H]2C(=O)Nc2ccc(Cl)c(Cl)c2)ccn1 (single isomer, unassigned) [Example 139a]
- pEC50 (NHACs): 4.60
- Emax (NHACs): 275%
- Emax (C3H10T1/2 cell line): 54%
- pIC50 (C3H10T1/2 cell line): 5.74

SMILES: Cc1cc([C@H]2[C@H]3O[C@H]([C@@H]4C[C@@H]43)[C@@H]2C(=O)Nc2ccc(Cl)c(Cl)c2)ccn1 [Example 117, (1S,2S,4R,5R,6R,7S)—N-(3,4-dichlorophenyl)-7-(2-methylpyridin-4-yl)-8-oxatricyclo[3.2.1.0^2,4]octane-6-carboxamide]
- pEC50 (NHACs): 5.52
- Emax (NHACs): 177%
- Emax (C3H10T1/2 cell line): 59%
- pIC50 (C3H10T1/2 cell line): 5.15

SMILES: COc1ccc(NC(=O)[C@H]2[C@@H]3O[C@@H]([C@H]4C[C@H]43)[C@@H]2c2ccc(C)nc2)cn1 [Example 123, (1S,2S,4R,5R,6R,7S)—N-(6-methoxypyridin-3-yl)-7-(6-methylpyridin-3-yl)-8-oxatricyclo[3.2.1.0^2,4]octane-6-carboxamide]
- pEC50 (NHACs): < 4.30
- Emax (NHACs): 0%
- Emax (C3H10T1/2 cell line): 48%
- pIC50 (C3H10T1/2 cell line): < 4.70

SMILES: Cn1cc([C@H]2[C@H]3O[C@H](C[C@@H]3O)[C@@H]2C(=O)Nc2ccc(Cl)c(Cl)c2)cn1 [Example 152, (1R,2R,3S,4R,5S)—N-(3,4-dichlorophenyl)-5-hydroxy-3-(1-methyl-1H-pyrazol-4-yl)-7-oxabicyclo[2.2.1]heptane-2-carboxamide]
- pEC50 (NHACs): 4.92
- Emax (NHACs): 44%
- Emax (C3H10T1/2 cell line): 61%
- pIC50 (C3H10T1/2 cell line): 5.70

SMILES: Cn1ccc([C@H]2[C@H]3O[C@H](C[C@@H]3O)[C@@H]2C(=O)Nc2ccc(Cl)c(Cl)c2)n1 [Example 153, (1R,2R,3S,4R,5S)—N-(3,4-dichlorophenyl)-5-hydroxy-3-(1-methyl-1H-pyrazol-3-yl)-7-oxabicyclo[2.2.1]heptane-2-carboxamide]
- pEC50 (NHACs): 4.72
- Emax (NHACs): 121%
- Emax (C3H10T1/2 cell line): 46%
- pIC50 (C3H10T1/2 cell line): < 4.70

SMILES: O=C(Nc1ccc(Cl)c(Cl)c1)[C@H]1[C@H](c2ccnc(C(F)(F)F)c2)[C@@H]2O[C@H]1C[C@H]2O (single isomer, unassigned) [Example 145b]
- Emax (C3H10T1/2 cell line): 83%
- pIC50 (C3H10T1/2 cell line): 4.96

SMILES: O=C(Nc1cnc(Cl)c(Cl)c1)[C@H]1[C@@H]2O[C@@H]([C@H]3C[C@H]32)[C@@H]1c1ccnc(F)c1F [Example 124, (1S,2S,4R,5R,6R,7S)—N-(5,6-dichloropyridin-3-yl)-7-(2,3-difluoropyridin-4-yl)-8-oxatricyclo[3.2.1.0^2,4]octane-6-carboxamide]
- pEC50 (NHACs): 5.55
- Emax (NHACs): 160%
- Emax (C3H10T1/2 cell line): 59%
- pIC50 (C3H10T1/2 cell line): 4.77

SMILES: O=C(Nc1ccc(Cl)c(Cl)c1)[C@@H]1[C@H]2O[C@H]([C@@H]3C[C@@H]32)[C@H]1c1cncnc1 (single isomer, unassigned) [Example 126b]
- pEC50 (NHACs): 5.25
- Emax (NHACs): 103%
- Emax (C3H10T1/2 cell line): 42%
- pIC50 (C3H10T1/2 cell line): < 4.70

SMILES: Cc1cc([C@H]2[C@H]3O[C@H](C[C@H]3NC3CCOCC3)[C@@H]2C(=O)Nc2ccc(Cl)c(Cl)c2)ccn1 [Example 169, (1R,2R,3S,4R,5R)—N-(3,4-dichlorophenyl)-3-(2-methylpyridin-4-yl)-5-((tetrahydro-2H-pyran-4-yl)amino)-7-oxabicyclo[2.2.1]heptane-2-carboxamide]
- pEC50 (NHACs): < 4.30
- Emax (NHACs): 69%
- Emax (C3H10T1/2 cell line): 54%
- pIC50 (C3H10T1/2 cell line): < 4.70

SMILES: Cc1cc([C@@H]2[C@@H]3O[C@@H](C[C@@H]3O)[C@H]2C(=O)Nc2ccc(Cl)c(Cl)c2)ccn1 [Example 181, (1S,2S,3R,4S,5S)—N-(3,4-dichlorophenyl)-5-hydroxy-3-(2-methylpyridin-4-yl)-7-oxabicyclo[2.2.1]heptane-2-carboxamide]
- pEC50 (NHACs): 4.57
- Emax (NHACs): 243%
- Emax (C3H10T1/2 cell line): 28%
- pIC50 (C3H10T1/2 cell line): < 4.70

SMILES: O=C(Nc1ccc(Cl)c(Cl)c1)[C@@H]1[C@@H](c2ccnc(C(F)(F)F)c2)[C@H]2O[C@@H]1C[C@@H]2O (single isomer, unassigned) [Example 145a]
- Emax (C3H10T1/2 cell line): 100%
- pIC50 (C3H10T1/2 cell line): 5.92

SMILES: Cc1cc([C@@H]2[C@@H](C(=O)Nc3ccc(Cl)c(Cl)c3)[C@@H]3O[C@H]2C[C@H]3F)ccn1 [Example 106, (1S,2R,3S,4S,6R)—N-(3,4-dichlorophenyl)-6-fluoro-3-(2-methylpyridin-4-yl)-7-oxabicyclo[2.2.1]heptane-2-carboxamide]
- pEC50 (NHACs): 4.62
- Emax (NHACs): 84%

SMILES: Cc1cc([C@H]2[C@H](C(=O)Nc3ccc(Cl)c(Cl)c3)[C@H]3O[C@@H]2C[C@H]3F)ccn1 (single isomer, unassigned) [Example 95]
- pEC50 (NHACs): 4.96
- Emax (NHACs): 113%

SMILES: Cc1cc([C@H]2[C@H]3O[C@H](C[C@@H]3F)[C@H]2C(=O)Nc2ccc(Cl)c(Cl)c2)ccn1 [Example 16, (1R,2S,3S,4R,5S)-N-(3,4-dichlorophenyl)-5-fluoro-3-(2-methylpyridin-4-yl)-7-oxabicyclo[2.2.1]heptane-2-carboxamide]
- pEC50 (NHACs): 4.68
- Emax (NHACs): 105%

SMILES: O=C(Nc1cccc(C(F)(F)F)c1)[C@H]1[C@@H]2O[C@@H]([C@H]3C[C@H]32)[C@@H]1c1ccncc1 [Example 131, (1S,2S,4R,5R,6R,7S)-7-(pyridin-4-yl)-N-(3-(trifluoromethyl)phenyl)-8-oxatricyclo[3.2.1.0^2,4]octane-6-carboxamide]
- pEC50 (NHACs): 4.72
- Emax (NHACs): 360%

SMILES: O=C(Nc1cnc(Cl)c(Cl)c1)[C@H]1[C@@H]2O[C@@H]([C@H]3C[C@H]32)[C@@H]1c1ccncc1 [Example 136, (1S,2S,4R,5R,6R,7S)—N-(5,6-dichloropyridin-3-yl)-7-(pyridin-4-yl)-8-oxatricyclo[3.2.1.0^2,4]octane-6-carboxamide]
- pEC50 (NHACs): 4.77
- Emax (NHACs): 254%

SMILES: Cc1cc([C@H]2[C@H]3O[C@H](C[C@H]3F)[C@@H]2C(=O)Nc2ccc(Cl)c(Cl)c2)ccn1 (single isomer, unassigned) [Example 92]
- pEC50 (NHACs): < 4.30
- Emax (NHACs): 57%

SMILES: CN(C)[C@@H]1C[C@H]2O[C@@H]1[C@H](c1ccnc(F)c1)[C@H]2C(=O)Nc1ccc(Cl)c(Cl)c1 [Example 172, (1R,2R,3S,4R,5R)—N-(3,4-dichlorophenyl)-5-(dimethylamino)-3-(2-fluoropyridin-4-yl)-7-oxabicyclo[2.2.1]heptane-2-carboxamide]
- pEC50 (NHACs): 4.80
- Emax (NHACs): 177%

SMILES: COc1ccc(NC(=O)[C@@H]2[C@@H](c3ccnc(C)c3)[C@H]3O[C@@H]2C[C@H]3F)cn1 [Example 97, (1R,2R,3S,4R,5R)-5-fluoro-N-(6-methoxypyridin-3-yl)-3-(2-methylpyridin-4-yl)-7-oxabicyclo[2.2.1]heptane-2-carboxamide]
- pEC50 (NHACs): < 4.30
- Emax (NHACs): 2%

Source: patent US12209096B2, “Compounds and compositions for inducing chondrogenesis” (NOVARTIS AG, priority 2017, dated 2025)
